Experimental data: patent US20040141912A1, “Method for targeting chemical compounds to cells and pharmaceutical compositions used therein” (priority 2001, published 2004)
Entries after “also recorded” stand apart in the source; their conditions may differ.

What was measured:
HeLa S3 cells = experiment: Flow-cytometric (FACS) analysis of DDL binding to apoptotic cells in aged HeLa culture; format: cell-based; settings: HeLa aged 96 h
Description: FIG. 2: HeLa cells were allowed to age by incubating the culture for 96 hours without exchange of the growth medium. As a result, a marked percentage of the cells became apoptotic. Cells were then incubated with DDL (1 μM, 2 minutes) under three different conditions: PLS-activation; PLS-inhibition; and reactivation of inhibited-PLS as defined above. Shown is quantitative analysis of fluorescence intensity (geomean) values.
For this purpose, cultured, aged HeLa S3 cells (ATCC CCL-2.2) were grown in Dulbecco's modified Eagle's medium (DMEM), containing CaCl (1.8 mM) and supplemented with 2 mM of L-glutamine; 100 units/ml of penicillin; 100 μg/ml of streptomycin; 12.5 units/ml of nystatin and 10% of fetal calf serum (FCS). Cells were seeded at a density of 5×10^6 cells/plate on a […] culture plates in a volume of 10 ml, and were allowed to age in culture for 96 hours without exchange of the growing medium. Such a procedure culminates in a large percentage of apoptotic cells within the culture. Culture (1×10^7/ml) was then incubated with DDL at a final concentration of 5 μM in HBS for 5 minutes, and taken immediately for FACS analysis for detection of bound DDL, using Becton-Dickinson cell sorter and CellQuest software. Excitation was at 360 nm and emission was measured at 530 nm.
Three different conditions were examined (FIG. 2): PLS-activation by the apoptotic process, PLS-inhibition; and reactivation of inhibited-PLS.

Jurkat cells = experiment: Fluorescent microscopy of DDL uptake by Jurkat cells induced to undergo apoptosis by anti-Fas antibody; format: cell-based, human
Description: FIG. 1: Jurkat cells were treated with anti-Fas antibody (0.1 μg/ml) for three hours. As a result, a marked percentage of the cells became apoptotic (i.e., PLS-activated cells). For subsequent inhibition of PLS, culture was then treated for 30 minutes with EGTA (1 mM) and BAPTA (20 μM), (i.e., PLS-inhibited culture). Both cultures were treated with DDL (1 μM, 2 minutes) and visualized by a fluorescent microscope (Olympus):
Cultured Jurkat cells (human adult T cell leukemia cells) were grown in suspension in RPMI medium (Beit-Haemek, Israel), supplemented with 10% of fetal calf serum (FCS), 4 mM of L-glutamine, 1 mM of sodium pyruvate, 1 mM CaCl2 and antibiotics (100 units/ml penicilin; 100 μg/ml streptomycin and 12.5 units/ml of nystatin). Prior to induction of apoptosis, medium was replaced with HBS buffer (10 mM HEPES; 140 mM NaCl, 1 mM CaCl). Apoptosis was then triggered by treatment with anti-Fas Ab (0.1 μg/ml; 3 hrs).
Such a procedure culminates in accumulation of a large percentage of apoptotic cells within the culture. Culture was then incubated with DDL at a final concentration of 1 μM for 5 minutes, and then taken immediately for fluorescent microscopy [Olympus fluorescent microscope, model IX70, excitation wavelength of 360 nm, emission at 530 nm].
Modulation of PLS activity was achieved by the calcium depletion-repletion procedure (Momchilova, A., et al., 2000). Inhibition of PLS by Ca^2+-deprivation was performed by cell incubation with the extra-and intracellular chelating agents EGTA (Ethylen glycol-bis (β-aminoethyl ether)-N,N,N′-tetraacetic acid, 1 mM) and BAPTA-AM ([1,2-bis(o-Amino-phenoxy) ethane-N,N,N′,N′-tetraacetic acid tetra-(acetoxymethyl) ester, 20 μM, respectively. Such a procedure eliminates any traces of Ca^2+ possibly present either intra- or extra-cellularly. Subsequent to the induction of apoptosis for three hours, cells were subjected to said PLS inhibition for 30 minutes. Cells were then incubated with DDL for 5 minutes, and subjected to fluorescent microscopy.
For re-activation of PLS, the EGTA/BAPTA-treated cells were now treated with CaCl (1 mM) and calcium ionophore A23187 (2 μM, Calbiochem, Darmstadt, Germany), thus elevating ambient Ca^2+ levels.

## CN(C)c1cccc2c(S(=O)(=O)NCCCCC(NS(=O)(=O)c3cccc4c(N(C)C)cccc34)C(=O)O)cccc12 (centres unmarked) [DDL]
HeLa S3 cells; Ca2+ re-administration
  DDL binding (fluorescence shift) after reactivation of PLS: restored this shift
HeLa S3 cells; Ca2+-deprivation
  DDL binding (fluorescence shift) after PLS inhibition: almost completely abolished this shift
HeLa S3 cells; PLS-activation by the apoptotic process
  DDL binding (fluorescence shift), PLS-activated apoptotic cells: distinct shift to higher fluorescence levels
Jurkat cells; EGTA/BAPTA-treated cells + Ca2+ 1 mM + calcium ionophore A23187 2 μM
  DDL uptake after re-activation of PLS: re-acquisition of a strong DDL uptake; also recorded: fast, selective and marked uptake
Jurkat cells; PLS-activated culture, anti-Fas Ab 0.1 μg/ml 3 h, DDL 1 μM
  DDL uptake (fluorescence) by apoptotic cells: Some of the cells manifest DDL binding; also recorded: Selective and fast uptake
Jurkat cells; apoptotic cells
  Intracellular localisation of DDL fluorescence: staining the cytoplasm but not the nucleus; also recorded: in the cytoplasm of those cells but not within the nuclei
Jurkat cells; apoptotic cells, Ca2+-deprivation: EGTA 1 mM + BAPTA 20 μM, 30 min, DDL 1 μM
  DDL uptake (fluorescence intensity) after PLS inhibition: marked reduction in the intensity of DDL-binding; also recorded: marked decrease in DDL uptake
Jurkat cells; same culture, DDL 1 μM
  DDL binding by intact cells not undergoing apoptosis: did not bind manifest significant DDL
